Experimental data from patent US20220305019A1, “PARAXANTHINE-BASED COMPOSITIONS FOR PROMOTING WEIGHT LOSS” (Ingenious Ingredients, LP, priority 2021, published 2022).

Legend:
Format in all cases: in vivo, human
[1] = Confidence visual analog scale (VAS) after oral ingestion, crossover, two participants; design: Confidence (Visual Analog Scale) / Confidence VAS MEAN: scale not given here; conditions: for Confidence (Visual Analog Scale) / Confidence VAS MEAN / Confidence VAS mean Δ vs. 100 mg PX / Confidence VAS mean Δ vs. PLA: 200 mg Caffeine
Procedure: (§1) All supplements were orally ingested with 8 fluid ounces of cold tap water. The order of administration for all interventions was randomized using a random allocation software to ensure randomization and to avoid order effects. After ingestion, participants completed all assessments in an identical fashion 30, 60, 90, 120, and 180 minutes after ingestion of their assigned supplement. All study visits took place between 0600-1000 hours. At least 72 hours of rest took place between each condition.

[2] = Swagger visual analog scale (VAS) after oral ingestion, crossover, two participants; conditions: 200 mg Caffeine
Procedure: as §1

[3] = Appetite visual analog scale (VAS) after oral ingestion, crossover, two participants; conditions: 200 mg CA; for Appetite Visual Analog Scale MEAN: mean 30-180 min
Procedure: All supplements were orally ingested with 8 fluid ounces of cold tap water. The order of administration for all interventions was randomized using a random allocation software to ensure randomization and to avoid order effects. […] All study visits took place between 0600-1000 hours. At least 72 hours of rest will take place between each condition.

Cn1c(=O)c2c(ncn2C)n(C)c1=O [CA, caffeine, reference compound]
Confidence (Visual Analog Scale) ([1]; 30 min, person one): 80 | Confidence (Visual Analog Scale) ([1]; 30 min, person two): 74 | Confidence (Visual Analog Scale) ([1]; 60 min, person one): 91 | Confidence (Visual Analog Scale) ([1]; 60 min, person two): 76 | Confidence (Visual Analog Scale) ([1]; 90 min, person one): 71 | Confidence (Visual Analog Scale) ([1]; 90 min, person two): 66 | Confidence (Visual Analog Scale) ([1]; 120 min, person one): 80 | Confidence (Visual Analog Scale) ([1]; 120 min, person two): 70 | Confidence (Visual Analog Scale) ([1]; 180 min, person one): 90 | Confidence (Visual Analog Scale) ([1]; 180 min, person two): 65 | Confidence VAS MEAN ([1]; Average of both): 76.3 | Confidence VAS MEAN ([1]; person one): 82.4 | Confidence VAS mean Δ vs. 100 mg PX ([1]; person one): +0.4 | Confidence VAS mean Δ vs. PLA ([1]; person one): +1 | Confidence VAS MEAN ([1]; person two): 70.2 | Confidence VAS mean Δ vs. 100 mg PX ([1]; person two): +0.2 | Confidence VAS mean Δ vs. PLA ([1]; person two): −0.8 | effect on confidence ([1]; 200 mg of CA): failed to increase confidence | Swagger (Visual Analog Scale) ([2]; 30 min, person one): 64 | Swagger (Visual Analog Scale) ([2]; 30 min, person two): 65 | Swagger (Visual Analog Scale) ([2]; 60 min, person one): 56 | Swagger (Visual Analog Scale) ([2]; 60 min, person two): 62 | Swagger (Visual Analog Scale) ([2]; 90 min, person one): 51 | Swagger (Visual Analog Scale) ([2]; 90 min, person two): 62 | Swagger (Visual Analog Scale) ([2]; 120 min, person one): 61 | Swagger (Visual Analog Scale) ([2]; 120 min, person two): 59 | Swagger (Visual Analog Scale) ([2]; 180 min, person one): 44 | Swagger (Visual Analog Scale) ([2]; 180 min, person two): 69 | Swagger VAS mean Δ vs. 100 mg PX ([2]; person one): −31.0 | Swagger VAS mean Δ vs. PLA ([2]; person one): −23.4 | Swagger VAS MEAN ([2]; person two): 63.4 | Swagger VAS mean Δ vs. 100 mg PX ([2]; person two): −10.0 | Swagger VAS mean Δ vs. PLA ([2]; person two): +10.0 | reduction in appetite compared to placebo [3]: 2.4% | Appetite Visual Analog Scale ([3]; 30 min, person one): 70 | Appetite Visual Analog Scale ([3]; 30 min, person two): 50 | Appetite Visual Analog Scale ([3]; 60 min, person one): 100 | Appetite Visual Analog Scale ([3]; 60 min, person two): 60 | Appetite Visual Analog Scale ([3]; 90 min, person one): 100 | Appetite Visual Analog Scale ([3]; 90 min, person two): 61 | Appetite Visual Analog Scale ([3]; 120 min, person one): 100 | Appetite Visual Analog Scale ([3]; 120 min, person two): 65 | Appetite Visual Analog Scale ([3]; 180 min, person one): 100 | Appetite Visual Analog Scale ([3]; 180 min, person two): 70 | Appetite Visual Analog Scale MEAN ([3]; Average of both): 77.6 | Appetite Visual Analog Scale MEAN ([3]; person one): 94.0 | Appetite Visual Analog Scale MEAN ([3]; person two): 61.2 | Appetite VAS mean Δ vs. 100 mg PX ([3]; person one): +65.0 | Appetite VAS mean Δ vs. 300 mg PX ([3]; person one): +66.8 | Appetite VAS mean Δ vs. PLA ([3]; person one): −0.2 | Appetite VAS mean Δ vs. 100 mg PX ([3]; person two): −12.8 | Appetite VAS mean Δ vs. 300 mg PX ([3]; person two): −2.8 | Appetite VAS mean Δ vs. PLA ([3]; person two): −12.0
